From patent publication US8110687B2, “Bicyclic compounds with kinase inhibitory activity” (Millennium Pharmaceuticals, Inc., priority 2005, dated 2012)

These molecules were tested on phospho-ERK formation (Raf kinase activity) in A375 cells (assay: Phospho-ERK ELISA assay). Details: Homo sapiens, A-375, 3 h, 3 hours with inhibitor, read-out: IC50, inhibition of the formation of phospho-ERK.
Format: cell-based
Experimental: Inhibition of Raf kinase activity in whole cell systems can be assessed by determining the decrease in phosphorylation of Raf kinase substrates. Any known Raf kinase substrate can be used to measure inhibition of Raf kinase activity in a whole cell system.
Medium was removed, and cells were incubated with Raf kinase inhibitors for 3 hours at 37° C. Medium was removed, and cells were fixed with 4% paraformaldehyde for 15 minutes at room temperature.
Methanol was added for 15 min. Cells were removed and blocked with 10% sheep serum and 1% BSA in PBS overnight at 4° C. Cells were incubated with anti-p44/42MAPK antibody (1:100, Cell Signaling Technologies, #9101L) (20 μL/well) for one hour at room temperature. After washing with PBS three times, cells were stained with anti-rabbit horseradish peroxidase-linked antibody from donkey (1:100, Amersham Bioscience #NA934V) for 1 hour at room temperature. Cells were washed three times with 0.5% Tween-20 in PBS and twice with PBS. 3,3′, 5,5′-Tetramethylbenzidine (TMB) liquid substrate system (Sigma, #T8665) (50 μL/well) was added, and cells were incubated for 30-45 minutes at room temperature. Optical density was read at 650 nm. Cells were then washed 3-5 times with PBS to remove color solution. Results were normalized for the protein content in each well using a BCA protein assay kit (Pierce).

Row | Structure (SMILES) | IC50 [µM]
1 | NCc1cc(NC(=O)C2CCc3ccc(Oc4ccnc(C(=O)N5CCCC5)c4)cc3C2)cc(C(F)(F)F)c1 (stereo not shown) [Compound I-362, N-[3-(aminomethyl)-5-(trifluoromethyl)phenyl]-7-{[2-(pyrrolidin-1-ylcarbonyl)pyridin-4-yl]oxy}-1,2,3,4-tetrahydronaphthalene-2-carboxamide] | ≤ 25
2 | N=C(N)c1cc(Oc2ccc3ccc(C(=O)Nc4ccc(CN)c(C(F)(F)F)c4)cc3c2)ccn1 [Compound I-381, 7-({2-[amino(imino)methyl]pyridin-4-yl}oxy)-N-[4-(aminomethyl)-3-(trifluoromethyl)phenyl]-2-naphthamide] | ≤ 25
3 | CN1CCN(c2cc(Oc3ccc4c(c3)CC(C(=O)Nc3cccc(C(C)(C)C)c3)CC4)ccn2)CC1 (stereo not shown) [Compound I-415, N-(3-tert-butylphenyl)-7-{[2-(4-methylpiperazin-1-yl)pyridin-4-yl]oxy}-1,2,3,4-tetrahydronaphthalene-2-carboxamide] | ≤ 25
4 | CCNC(=O)NCc1cc(NC(=O)C2CCc3ccc(Oc4ccnc(C(=O)NC)c4)cc3C2)cc(C(F)(F)F)c1 (stereo not shown) [Compound I-420, 4-{[7-({[3-({[(ethylamino)carbonyl]amino}methyl)-5-(trifluoromethyl)phenyl]amino}carbonyl)-5,6,7,8-tetrahydronaphthalen-2-yl]-oxy}-N-methylpyridine-2-carboxamide] | ≤ 25
5 | CNC(=O)c1cc(Oc2ccc3c(c2)CC(NC(=O)c2ccc(Cl)c(C(F)(F)F)c2)CC3)ccn1 (stereo not shown) [Compound I-444, 4-[(7-{[4-chloro-3-(trifluoromethyl)benzoyl]amino}-5,6,7,8-tetrahydronaphthalen-2-yl)oxy]-N-methylpyridine-2-carboxamide] | ≤ 25
6 | CC(C)(C)c1cccc(NC(=O)c2cnc3ccc(Oc4ccnc(C#N)c4)cc3c2)c1 [Compound I-448, N-(3-tert-butylphenyl)-6-[(2-cyanopyridin-4-yl)oxy]quinoline-3-carboxamide] | ≤ 25
7 | CNC(=O)c1cc(Oc2ccc3c(c2)CC(NC(=O)c2cccc(C(C)(C)C)c2)CC3)ccn1 (stereo not shown) [Compound I-460, 4-({7-[(3-tert-butylbenzoyl)amino]-5,6,7,8-tetrahydronaphthalen-2-yl}oxy)-N-methylpyridine-2-carboxamide] | ≤ 25
